Experimental data as given in paper PMC4805166, “Synthetic Cyclolipopeptides Selective against Microbial, Plant and Animal Cell Targets by Incorporation of D-Amino Acids or Histidine” (PLoS ONE, 2016).
Where “and” joins values, the source holds several entries; their conditions need not be identical. Equal values may be shown once. Read-outs that look alike come from different tables or passages of the source. Where a SMILES comes first, the peptide text is derived from it. [ ]: non-standard residue; d: D form. The star is where a group is joined. Oleoyl = CCCCCCCC/C=C\CCCCCCCC(=O)*; Palmitoyl = CCCCCCCCCCCCCCCC(=O)*; Pentanoyl(4-Me) = CC(C)CCC(=O)*; Lauroyl = CCCCCCCCCCCC(=O)*; Octanoyl = CCCCCCCC(=O)*; X1 = O=C(CCCCCCCCCCCO)*; Hexanoyl = CCCCCC(=O)*; Pentanoyl = CCCCC(=O)*; Butyryl = CCCC(=O)*

Tests used:
[1] = system: Xanthomonas axonopodis pv. vesicatoria 2133–2; assay type: cell-based; conditions: TSB, 25°C, 48 h, OD 600 nm; tested at 3.1, 6.2, 12.5, 25, 50 μM; three replicates, experiment repeated twice; MIC = lowest concentration with no growth
Method: (§1) The following plant pathogenic bacterial strains were used: Erwinia amylovora PMV6076 (Institut National de la Recherche Agronomique, Angers, France), Pseudomonas syringae pv. syringae EPS94 (Institut de Tecnologia Agroalimentària, Universitat de Girona, Spain) and Xanthomonas axonopodis pv. vesicatoria 2133–2 (Instituto Valenciano de Investigaciones Agrarias, Valencia, Spain). All bacteria were stored in Luria Bertani (LB) broth supplemented with glycerol (20%) and maintained at -80°C. Bacteria were scrapped from LB agar after growing for 24–48 h at 25°C. The cell material was suspended in sterile water to obtain a suspension of 10^8 CFU mL^-1.
(§2) Lyophilized peptides were solubilized in sterile Milli-Q water to a final concentration of 1 mM and filter sterilized through a 0.22-μm pore filter. For minimum inhibitory concentration (MIC) assessment, dilutions of the compounds were made to obtain a stock concentration of […]. For antibacterial activity twenty microlitres of each dilution were mixed in a microtiter plate well with 20 μL of the corresponding suspension of the bacterial indicator, 160 μL of Trypticase Soy Broth (TSB) (BioMèrieux, France) to a total volume of 200 μL. For antifungal activity 20 μL of each stock solution were mixed in a microtiter plate well with 80 μL of the corresponding suspension of the fungal pathogen and 100 μL of double concentrated PDB to a total volume of 200 μL containing 0.003% w/v of choramphenicol.
(§3) Three replicates for each strain, compound and concentration were used. Microbial growth was determined by optical density measurement at 600 nm (Bioscreen C, Labsystem, Helsinki, Finland). For antibacterial activity microplates were incubated at 25°C with 20 sec shaking before hourly absorbance measurement for 48 h. For antifungal activity microplates were incubated at 20°C with 1 min shaking before absorbance measurement that were done every two hours during seven days. The experiment was repeated twice. The MIC was taken as the lowest compound concentration with no growth at the end of the experiment.

[2] = system: Pseudomonas syringae pv. syringae EPS94; assay type: cell-based; conditions: 48 h
Method: as §1, §2, §3

[3] = system: Fusarium oxysporum f. sp. lycopersici FOL 3 race 2; test: MIC, antifungal growth inhibition; assay type: cell-based
Method: Fusarium oxysporum f. sp. lycopersici FOL 3 race 2 (ATCC 201829, American Type Culture Collection) was used as fungal pathogen. The strain was cultured on potato dextrose agar (PDA) plates (Difco) and microconidia were obtained after growth at 25°C. The concentration of conidia was determined using a hemacytometer and adjusted to 10^4 conidia mL^-1.
as §2, §3

[4] = system: Erwinia amylovora PMV6076; test: MIC, in vitro growth inhibition; assay type: cell-based; conditions: TSB, 25°C, 48 h, OD 600 nm; tested at 3.1, 6.2, 12.5, 25, 50 μM; three replicates, experiment repeated twice; MIC = lowest concentration with no growth
Method: as §1, §2, §3

[5] = system: erythrocyte suspensions of horse blood; conditions: horse erythrocytes 5% vol/vol, TRIS buffer pH 7.2, 1 h at 37°C, absorbance 540 nm, relative to melittin 100 μM, ± confidence interval (α = 0.05); for Hemolysis (%) 150 µM: 150 µM peptide; for Hemolysis (%) 250 µM: 250 µM peptide;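 for all read-outs here: Read-out is hemoglobin release into the supernatant, with a buffer-only blank subtracted as the 0% baseline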
Method: Blood was centrifuged at 6000g for 5 min, washed three times with TRIS buffer (10 mM TRIS, 150 mM NaCl, pH 7.2) and diluted.
Compounds were solubilized in TRIS buffer and mixed with horse erythrocytes and the final concentrations tested were 250 and 150 μM. The mixture was incubated under continuous shaking for 1 h at 37°C. Then, the tubes were centrifuged at 3500g for 10 min, 80 μL aliquots of the supernatant transferred to 100-well microplates (Bioscreen), diluted with 80 μL water, and the absorbance measured at 540 nm (Bioscreen). Complete hemolysis was obtained by the addition of melittin at 100 μM (Sigma-Aldrich Corporation, Madrid, Spain). The percentage of hemolysis (H) was calculated using the equation: H = 100×[(Op−Ob)/(Om−Ob)], where Op was the density for a given compound concentration, Ob for the buffer, and Om for the melittin positive control.

[6] = PDB with 0.003% chloramphenicol, 20°C, seven days, OD 600 nm, tested at 3.1, 6.2, 12.5, 25, 50 μM, three replicates, repeated twice

Molecule	MIC Xav [1] [µM]	MIC Pss [2] [µM]	MIC Fo [3, 6]	MIC Ea [4] [µM]	Hemolysis (%) 150 µM [5] [%]	Hemolysis (%) 250 µM [5] [%]	MIC Fo [3] [µM]	MIC Pss ([2]; TSB, 25°C, OD 600 nm, tested at 3.1, 6.2, 12.5, 25, 50 μM, three replicates, experiment repeated twice, MIC = lowest concentration with no growth) [µM]
CCCCCCCC(=O)NCCCC[C@@H]1NC(=O)[C@H](CCCCN)NC(=O)[C@H](CC(C)C)NC(=O)[C@H](CCCCN)NC(=O)[C@H](CCCCN)NC(=O)[C@H](CCC(N)=O)NC(=O)[C@H](CC(C)C)NC(=O)[C@H](CCCCN)NC(=O)[C@H](CCCCN)NC(=O)[C@H](Cc2ccccc2)NC1=O [BPC498, c(KKLKK(CO-C7H15)FKKLQ)] (cyclo(FKKLQKKLKK(Octanoyl)))	6.2 to 12.5	12.5 to 25	3.1 to 6.2 µM	25 to 50	78 ± 4	100 ± 12	–	–
CCCCCCCCCCCCCCCC(=O)NCCCC[C@@H]1NC(=O)[C@H](CCCCN)NC(=O)[C@H](CC(C)C)NC(=O)[C@H](CCCCN)NC(=O)[C@H](CCCCN)NC(=O)[C@H](CCC(N)=O)NC(=O)[C@H](CC(C)C)NC(=O)[C@H](CCCCN)NC(=O)[C@H](CCCCN)NC(=O)[C@H](Cc2ccccc2)NC1=O [BPC502, c(KKLKK(CO-C15H31)FKKLQ)] (cyclo(FKKLQKKLKK(Palmitoyl)))	>50	>50	>50 µM	>50	78 ± 1	99 ± 2	–	–
CC(C)C[C@@H]1NC(=O)[C@H](CCCCN)NC(=O)[C@H](CCCCN)NC(=O)[C@H](CCC(N)=O)NC(=O)[C@H](CC(C)C)NC(=O)[C@H](CCCCN)NC(=O)[C@H](CCCCN)NC(=O)[C@H](Cc2ccccc2)NC(=O)[C@H](CCCCNC(=O)CCCCCCCCCCCO)NC(=O)[C@H](CCCCN)NC1=O [BPC524, c(KKLKK(CO-C11H22OH)FKKLQ)] (cyclo(FKKLQKKLKK(X1)))	6.2 to 12.5	12.5 to 25	12.5 to 25 µM	25 to 50	100 ± 8	100 ± 6	–	–
CCCCC(=O)NCCCC[C@@H]1NC(=O)[C@H](CCCCN)NC(=O)[C@H](CC(C)C)NC(=O)[C@H](CCCCN)NC(=O)[C@H](CCCCN)NC(=O)[C@H](CCC(N)=O)NC(=O)[C@H](CC(C)C)NC(=O)[C@H](CCCCN)NC(=O)[C@H](CCCCN)NC(=O)[C@H](Cc2ccccc2)NC1=O [BPC526, c(KKLKK(CO-C4H9)FKKLQ)] (cyclo(FKKLQKKLKK(Pentanoyl)))	<3.1	12.5 to 25	6.2 to 12.5 µM	12.5 to 25	62 ± 2	78 ± 3	–	–
CCCCCCCCCCCC(=O)NCCCC[C@@H]1NC(=O)[C@H](CCCCN)NC(=O)[C@H](CC(C)C)NC(=O)[C@H](CCCCN)NC(=O)[C@H](CCCCN)NC(=O)[C@H](CCC(N)=O)NC(=O)[C@H](CC(C)C)NC(=O)[C@H](CCCCN)NC(=O)[C@H](CCCCN)NC(=O)[C@H](Cc2ccccc2)NC1=O [BPC530, c(KKLKK(CO-C11H23)FKKLQ)] (cyclo(FKKLQKKLKK(Lauroyl)))	6.2 to 12.5	12.5 to 25	6.2 to 12.5 µM	12.5 to 25	89 ± 7	91 ± 9	–	–
CCCCCC(=O)NCCCC[C@@H]1NC(=O)[C@H](CCCCN)NC(=O)[C@H](Cc2ccccc2)NC(=O)[C@H](CCCCN)NC(=O)[C@H](CCCCN)NC(=O)[C@H](CC(C)C)NC(=O)[C@H](CCCCN)NC(=O)[C@H](CCCCN)NC(=O)[C@H](CCC(N)=O)NC(=O)[C@H](CC(C)C)NC1=O [BPC582] (cyclo(FKK(Hexanoyl)LQKKLKK))	6.2 to 12.5	6.2 to 12.5	12.5 to 25 µM	12.5 to 25	92 ± 3	96 ± 10	–	–
CCCCCC(=O)NCCCC[C@@H]1NC(=O)[C@H](Cc2ccccc2)NC(=O)[C@H](CCCCN)NC(=O)[C@H](CCCCN)NC(=O)[C@H](CC(C)C)NC(=O)[C@H](CCCCN)NC(=O)[C@H](CCCCN)NC(=O)[C@H](CCC(N)=O)NC(=O)[C@H](CC(C)C)NC(=O)[C@H](CCCCN)NC1=O [BPC584, c(KKLKKFK(CO-nC5H11)KLQ)] (cyclo(FK(Hexanoyl)KLQKKLKK))	6.2 to 12.5	12.5 to 25	25 to 50 µM	25 to 50	72 ± 5	97 ± 12	–	–
CCCCCC(=O)NCCCC[C@@H]1NC(=O)[C@H](CC(C)C)NC(=O)[C@H](CCCCN)NC(=O)[C@H](CCCCN)NC(=O)[C@H](CCC(N)=O)NC(=O)[C@H](CC(C)C)NC(=O)[C@H](CCCCN)NC(=O)[C@H](CCCCN)NC(=O)[C@H](Cc2ccccc2)NC(=O)[C@H](CCCCN)NC1=O [BPC586, c(KKLK(CO-nC5H11)KFKKLQ)] (cyclo(FKKLQKKLK(Hexanoyl)K))	6.2 to 12.5	6.2 to 12.5	12.5 to 25 µM	12.5 to 25	92 ± 9	95 ± 20	–	–
CCCCCCCC/C=C\CCCCCCCC(=O)NCCCC[C@@H]1NC(=O)[C@H](CCCCN)NC(=O)[C@H](CC(C)C)NC(=O)[C@H](CCCCN)NC(=O)[C@H](CCCCN)NC(=O)[C@H](CCC(N)=O)NC(=O)[C@H](CC(C)C)NC(=O)[C@H](CCCCN)NC(=O)[C@H](CCCCN)NC(=O)[C@H](Cc2ccccc2)NC1=O [BPC622, c(KKLKK(CO-C17H33)FKKLQ)] (cyclo(FKKLQKKLKK(Oleoyl)))	3.1 to 6.2	25 to 50	>50 µM	>50	91 ± 2	97 ± 3	–	–
CCCCCC(=O)NCCCC[C@@H]1NC(=O)[C@H](CCCCN)NC(=O)[C@H](CC(C)C)NC(=O)[C@H](CCCCN)NC(=O)[C@H](CCCCN)NC(=O)[C@H](CCC(N)=O)NC(=O)[C@H](CC(C)C)NC(=O)[C@H](CCCCN)NC(=O)[C@H](CCCCN)NC(=O)[C@@H](Cc2ccccc2)NC1=O [BPC624, c(KKLKK(CO-nC5H11)fKKLQ)] (cyclo(KKLKK(Hexanoyl)[dF]KKLQ))	6.2 to 12.5	12.5 to 25	6.2 to 12.5 µM	25 to 50	53 ± 5	64 ± 9	–	–
CC(C)CCC(=O)NCCCC[C@@H]1NC(=O)[C@H](CCCCN)NC(=O)[C@H](CC(C)C)NC(=O)[C@H](CCCCN)NC(=O)[C@H](CCCCN)NC(=O)[C@H](CCC(N)=O)NC(=O)[C@H](CC(C)C)NC(=O)[C@H](CCCCN)NC(=O)[C@H](CCCCN)NC(=O)[C@@H](Cc2ccccc2)NC1=O [BPC626, c(KKLKK(CO-isoC5H11)fKKLQ)] (cyclo(KKLKK(Pentanoyl(4-Me))[dF]KKLQ))	6.2 to 12.5	12.5 to 25	6.2 to 12.5 µM	25 to 50	51 ± 7	54 ± 4	–	–
CCCC(=O)NCCCC[C@H]1NC(=O)[C@H](CCCCN)NC(=O)[C@H](CC(C)C)NC(=O)[C@H](CCCCN)NC(=O)[C@H](CCCCN)NC(=O)[C@H](CCC(N)=O)NC(=O)[C@H](CC(C)C)NC(=O)[C@H](CCCCN)NC(=O)[C@H](CCCCN)NC(=O)[C@H](Cc2ccccc2)NC1=O [BPC702, c(KKLKk(CO-C3H7)FKKLQ)] (cyclo(FKKLQKKLK[dK](Butyryl)))	–	–	< 12.5 µM and 3.1 to 6.2 µM	25 to 50	1 ± 0.1	–	3.1 to 6.2	–
c(KKLKK(CO-C6H13)FKKLQ) [BPC592]	6.2 to 12.5	–	12.5 to 25 µM	25 to 50	–	–	–	12.5 to 25
